Test systems include NCI-H23 lung; ACHN renal; SN12C renal; MCF7 breast; U251 CNS; RPMI-8226 leukemia; 786-0 renal; MDA-MB-231 breast; MALME-3M melanoma; CCRF-CEM leukemia.
What all share (test): DTP human tumour cell line panel, 48 h

Values joined by “and” are separate entries in the source; they are usually repeats but may differ in a detail not shown here. Identical values can stand only once.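 Following 48 hours of exposure in 96-well plates, responses at five concentrations were used to interpolate endpoints linearly. GI50 = concentration required for 50% inhibition of growth. At the TGI there is no net growth.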

As to `OC(CBr)C(O)C(O)C(O)CBr` (stereo unspecified), the GI50 with NCI-H23 lung is 12 µM and > 61.1 µM; in the test with SN12C renal it was 15.3 µM and 57.5 µM; with MCF7 breast, 13.7 µM and 40.1 µM. The TGI in the test with NCI-H23 lung, in the test on ACHN renal, with SN12C renal, in the test on MCF7 breast, with U251 CNS and in the test on RPMI-8226 leukemia was over 100 µM throughout. In addition, the TGI is over 67.9 µM in the test with 786-0 renal, over 100 µM in the test with MDA-MB-231 breast, over 100 µM in the test with MALME-3M melanoma and over 100 µM in the test on CCRF-CEM leukemia.
Take `COc1cc(/C=C/[N+](=O)[O-])cc(OC)c1`: the GI50 in the test on NCI-H23 lung was 1.85 µM; in the test with ACHN renal it was 1.76 µM; with SN12C renal, 3.38 µM; with MCF7 breast, 1.39 µM; with U251 CNS, 2.22 µM; in the test with RPMI-8226 leukemia it was 1.85 µM. The GI50 is 1.74 µM in the test with 786-0 renal, 2.72 µM in the test with MDA-MB-231 breast, 3.29 µM with MALME-3M melanoma and 2.02 µM in the test on CCRF-CEM leukemia. For the same compound, the TGI in the test on NCI-H23 lung was found to be 4.37 µM; in the test on ACHN renal, 3.72 µM; in the test with SN12C renal, 15.9 µM; in the test on MCF7 breast, 3.61 µM; with U251 CNS, 5.48 µM; with RPMI-8226 leukemia, 4.61 µM. The concentration for total growth inhibition (TGI) amounted to 3.31 µM with 786-0 renal, 8.48 µM in the test with MDA-MB-231 breast, 10.4 µM in the test on MALME-3M melanoma and 6.32 µM with CCRF-CEM leukemia.
As to `COc1cc(-c2cc(-c3ccc(Nc4nc(Nc5ccc(Cl)cc5)nc(Nc5ccc(Cl)cc5)n4)cc3)no2)cc(OC)c1OC`, the GI50 is 18 µM in the test with NCI-H23 lung; 14.9 µM with ACHN renal; 39.1 µM in the test on SN12C renal; 3 µM with MCF7 breast; 11.4 µM with U251 CNS; 1.75 µM in the test with RPMI-8226 leukemia. For the same compound, the GI50 was 3.6 µM with 786-0 renal, 5.15 µM in the test on MDA-MB-231 breast, 50.3 µM in the test on MALME-3M melanoma and 2.16 µM in the test on CCRF-CEM leukemia. In addition, the TGI is over 100 µM in the test with NCI-H23 lung; over 100 µM with ACHN renal; over 100 µM in the test with SN12C renal; 69.7 µM with MCF7 breast; over 100 µM in the test on U251 CNS; over 100 µM in the test with RPMI-8226 leukemia. The TGI with 786-0 renal was 20.1 µM; in the test on MDA-MB-231 breast it was over 100 µM; with MALME-3M melanoma, over 100 µM; in the test with CCRF-CEM leukemia, 11.9 µM.
In the case of `CN1c2cccc[c]2[Sn]([CH3])([CH3])[c]2ccccc21`, the GI50 in the test on NCI-H23 lung is under 0.01 µM; in the test with ACHN renal it was under 0.0155 µM; in the test on SN12C renal, under 0.0138 µM; in the test on MCF7 breast it was under 0.01 µM; with U251 CNS it was under 0.016 µM; in the test on RPMI-8226 leukemia, under 0.0119 µM. In addition, the GI50 in the test on 786-0 renal is under 0.014 µM; with MDA-MB-231 breast, under 0.0132 µM; in the test with MALME-3M melanoma, under 0.0238 µM; in the test on CCRF-CEM leukemia it was under 0.01 µM. Moreover, the TGI in the test on NCI-H23 lung came to 0.0677 µM; in the test on ACHN renal, 0.17 µM; in the test with SN12C renal it was 0.116 µM; in the test with U251 CNS it was 0.134 µM; in the test on RPMI-8226 leukemia, 0.0316 µM; in the test on 786-0 renal, 0.124 µM. The values for the TGI in the test with MDA-MB-231 breast, with MALME-3M melanoma and in the test with CCRF-CEM leukemia were 0.165 µM, 0.226 µM and 0.119 µM, respectively.
As for `COc1cc(N2CCN(C(C)C)CC2)ccc1Nc1nc(Nc2ccc(F)cc2C(N)=O)c2cc[nH]c2n1`, the GI50 with NCI-H23 lung was 0.304 µM; with ACHN renal, 0.502 µM; with SN12C renal, 2.54 µM; in the test on MCF7 breast it was 0.0154 µM; in the test on U251 CNS it was 2.72 µM; in the test on RPMI-8226 leukemia, 3.69 µM. For the same compound, the GI50 is 1.33 µM in the test on 786-0 renal, 2.98 µM in the test on MDA-MB-231 breast, 0.228 µM in the test on MALME-3M melanoma and 0.277 µM in the test with CCRF-CEM leukemia. Further, the TGI turned out to be 6.65 µM in the test on NCI-H23 lung; 5.2 µM in the test with ACHN renal; 5.9 µM in the test on SN12C renal; 4.07 µM in the test on MCF7 breast; 6.13 µM in the test with U251 CNS; 12.5 µM in the test with RPMI-8226 leukemia. For the same compound, the TGI in the test with 786-0 renal worked out at 5.45 µM; in the test with MDA-MB-231 breast, 7.22 µM; in the test on MALME-3M melanoma it was 5.22 µM; with CCRF-CEM leukemia it was 21.3 µM.
In the case of `Cn1cc(-c2[nH]c3cc(NC(=O)[C@H](N)C4CCCCC4)cc4c3c2C=NNC4=O)cn1`, the GI50 is 0.267 µM and 0.197 µM in the test on NCI-H23 lung; 0.419 µM and 1.06 µM with ACHN renal; 0.56 µM and 0.55 µM in the test with SN12C renal; 0.211 µM and 0.209 µM in the test with MCF7 breast; 0.418 µM and 0.415 µM in the test with U251 CNS; 3.18 µM and 3.24 µM in the test with RPMI-8226 leukemia. In addition, the GI50 in the test with 786-0 renal is 0.256 µM and 0.315 µM; in the test with MDA-MB-231 breast, 0.866 µM and 0.562 µM; in the test on MALME-3M melanoma, 2.22 µM and 0.517 µM; with CCRF-CEM leukemia it was 0.0345 µM and 0.056 µM. Moreover, the TGI is 9.52 µM and > 10 µM with NCI-H23 lung; 8.35 µM and > 10 µM in the test on ACHN renal; 13.4 µM and > 10 µM in the test with SN12C renal; 15.8 µM and > 10 µM in the test with MCF7 breast; 12.9 µM and > 10 µM in the test with U251 CNS; 11.5 µM and > 10 µM with RPMI-8226 leukemia. Besides, the TGI in the test on MDA-MB-231 breast was 12.4 µM and > 10 µM; in the test with MALME-3M melanoma, 24.7 µM and > 10 µM; with CCRF-CEM leukemia it was 0.507 µM and > 3.89 µM.
With `Clc1ccc(Nc2nnc(COc3ccccc3)c3ccccc23)cc1`, the GI50 is 1.56 µM in the test with NCI-H23 lung; 2.35 µM in the test with ACHN renal; 2.12 µM with SN12C renal; 1.18 µM in the test on MCF7 breast; 2.93 µM in the test on U251 CNS; 1.37 µM with RPMI-8226 leukemia. The GI50 is 2.6 µM with 786-0 renal, 1.28 µM in the test on MDA-MB-231 breast, 1.38 µM in the test with MALME-3M melanoma and 2.8 µM in the test on CCRF-CEM leukemia. Also, the TGI with NCI-H23 lung was found to be 7.87 µM; in the test on ACHN renal, 25 µM; with SN12C renal, 8.07 µM; in the test on MCF7 breast, 6.07 µM; in the test on U251 CNS, 7.47 µM; in the test with RPMI-8226 leukemia, 6.96 µM. Besides, the TGI in the test on 786-0 renal worked out at 8.11 µM; in the test with MDA-MB-231 breast, 6.9 µM; in the test with MALME-3M melanoma it was 7.3 µM; in the test with CCRF-CEM leukemia, 14.2 µM.
In the case of `CC1(/C=C/c2ccc(-c3ccccc3)cc2)CCn2cnc3ncnc(c32)N1O` (stereo unspecified), the GI50 is 0.635 µM with NCI-H23 lung; 0.281 µM in the test on ACHN renal; 0.508 µM in the test on SN12C renal; 0.342 µM in the test with MCF7 breast; 0.418 µM in the test on U251 CNS; 0.467 µM in the test on RPMI-8226 leukemia. In addition, the GI50 in the test on 786-0 renal was 0.259 µM; in the test on MDA-MB-231 breast, 0.509 µM; in the test with MALME-3M melanoma, 0.412 µM; in the test with CCRF-CEM leukemia it was 0.153 µM. The TGI in the test with NCI-H23 lung is 27.3 µM; in the test with ACHN renal it was 14.2 µM; in the test with SN12C renal it was 40.7 µM; with MCF7 breast it was over 69.4 µM; in the test with U251 CNS, 22 µM; in the test with RPMI-8226 leukemia, 22.7 µM. Also, the TGI with 786-0 renal came to 4.49 µM; with MDA-MB-231 breast it was 63.2 µM; in the test with MALME-3M melanoma, 14.7 µM; in the test with CCRF-CEM leukemia, 41.5 µM.
For the compound `Nc1cc2c3ccccc3ccc2c2ccccc12`, the GI50 with NCI-H23 lung is over 100 µM; in the test on ACHN renal, over 100 µM; with SN12C renal it was over 100 µM; in the test with MCF7 breast, 20.2 µM; in the test with U251 CNS it was 21.4 µM; in the test with RPMI-8226 leukemia, over 45.9 µM. In addition, the GI50 with 786-0 renal was over 100 µM; in the test with MDA-MB-231 breast, 7.36 µM; with MALME-3M melanoma it was over 100 µM; with CCRF-CEM leukemia, 8 µM. Also, the TGI in the test with NCI-H23 lung, with ACHN renal, with SN12C renal, in the test with MCF7 breast, in the test with U251 CNS and with RPMI-8226 leukemia was over 100 µM in each case. In addition, the TGI with 786-0 renal, in the test on MDA-MB-231 breast, with MALME-3M melanoma and in the test on CCRF-CEM leukemia was over 100 µM in each case.

What is called GI50 is the concentration at which growth is held to half of that of the control. A word on the TGI: it is the concentration at which net growth stops. A high value points to lower sensitivity of the cells.

The values above are taken from PubChem BioAssay (NCI).
